These results are taken from patent publication US5264565A, “Nucleic acid encoding the D2 /Ml chimeric receptor” (Affymax Technologies, N.V., priority 1991, dated 1993).

One test has as its target D2 /ml receptor. The experiment in a line: Competition binding assay with [3H]-spiperone, D2/ml chimeric receptor. Also on record: species or system human. As to conditions: for Ki: D2/ml Receptor, 0.5 nM [3H]-spiperone, anti-log of mean log Ki, three experiments, Cheng-Prusoff. The method, then:
(§1) Cells were detached from culture flasks with EDTA, pelleted at 1,000×g and resuspended in 1× binding buffer (100 mM Tris; 120 mM NaCl; 5 mM KCl; 1 mM MgCl2; 2 mM CaCl2; 1.1 mM ascorbic acid; pH 7.4) at ~1×10^6 cells/ml. Cells were homogenized with a Polytron (Brinkman) and the crude membrane fraction was pelleted at 17,000× g for 10 min. […] Triplicate binding reactions were done in IX binding buffer for 30 min. at 37°, then stopped by filtration through glass-fiber filters (Skatron) that were pre-soaked in 0.1% polyethyleneimine, followed by a 5 sec. wash with ice cold 0.1× binding buffer. […] Competing ligands were all from Research Biochemicals Inc.

A further test deals with D2 /ml chimeric receptor. As to conditions: dopamine 0.1-1000 μM, CHO cells expressing D2/ml receptor (FIG. 3B).
In test [1] the target is T1, D2(414) receptor (Homo sapiens, UniProt P14416). As to conditions: dopamine 100 μM, CHO cells expressing D2(414) receptor (FIG. 3A).
T1 sequence (P14416 1-414 isoform P14416-2): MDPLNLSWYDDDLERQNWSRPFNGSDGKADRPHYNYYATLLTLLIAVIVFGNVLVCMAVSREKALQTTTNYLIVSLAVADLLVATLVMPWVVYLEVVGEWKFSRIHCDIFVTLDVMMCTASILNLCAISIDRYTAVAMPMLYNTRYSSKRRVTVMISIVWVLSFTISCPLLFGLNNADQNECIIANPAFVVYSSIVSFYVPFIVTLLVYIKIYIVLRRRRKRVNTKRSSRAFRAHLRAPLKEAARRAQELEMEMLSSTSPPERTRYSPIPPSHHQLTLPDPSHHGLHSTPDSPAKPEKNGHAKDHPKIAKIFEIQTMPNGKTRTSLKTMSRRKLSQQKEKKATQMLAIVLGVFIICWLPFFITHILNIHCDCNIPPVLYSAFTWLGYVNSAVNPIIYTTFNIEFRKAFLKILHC
Test [2] has as its system non-transfected CHO cells. The experiment in a line: [Ca+2]i assay (Fura-2) in non-transfected CHO cells.
Test [3] addresses T1, D2(414) receptor. The experiment in a line: Competition binding assay with [3H]-spiperone, D2(414) receptor. Also on record: expressed in transfected cells. The protocol: as §1
The subject of the next test is CHO cells. Put plainly: Radioligand specific binding in non-transfected CHO cells. Also on record: species or system Chinese hamster. The following applies: preliminary studies. The protocol: Cells were detached from culture flasks with EDTA, pelleted at 1,000×g and resuspended in 1× binding buffer (100 mM Tris; 120 mM NaCl; 5 mM KCl; 1 mM MgCl2; 2 mM CaCl2; 1.1 mM ascorbic acid; pH 7.4) at ~1×10^6 cells/ml. Cells were homogenized with a Polytron (Brinkman) and the crude membrane fraction was pelleted at 17,000× g for 10 min. […] Triplicate binding reactions were done in IX binding buffer for 30 min. at 37°, then stopped by filtration through glass-fiber filters (Skatron) that were pre-soaked in 0.1% polyethyleneimine, followed by a 5 sec. wash with ice cold 0.1× binding buffer.

SMILES strings stand for the structures.

For `CCN1CCC[C@H]1CNC(=O)c1cc(S(N)(=O)=O)ccc1OC` [(-) Sulpiride], at D2 /ml receptor, the affinity corresponds to a Ki of 45 nM.
`NCCc1ccc(O)c(O)c1` [Dopamine]: the “[Ca+2]i response” value in the test on D2 /ml chimeric receptor is “elevated in a dose dependent manner”. Besides, the “[Ca+2]i” value is “failed to alter” at D2(414) receptor [1] and “unaltered” in test [2] (dopamine 1 mM). Besides, affinity at D2 /ml receptor was put at a Ki of 2100 nM.
In the case of `CCCN(CCc1ccccc1)C1CCc2c(O)cccc2C1` (stereo not drawn) [N-0434], the Ki (usually a measure of affinity in units of concentration, obtained from inhibition or displacement) on D2 /ml receptor worked out at 27 nM. This counts as double-digit nanomolar.
With `CN1CCc2cc(Cl)c(O)cc2[C@@H](c2ccccc2)C1` [SCH-23390], the inhibition constant Ki amounted to 2100 nM on D2(414) receptor [3] and 3600 nM at D2 /ml receptor. The “Difference in Ki between D2(414) and D2/ml receptor” value on D2 /ml receptor (comparison of Ki at the two receptors, t-test) is reported as “small”.
At D2 /ml receptor, `Oc1cc2c(cc1O)C(c1ccccc1)CNCC2` (stereo not drawn) [SKF-38393] had a Ki of 36000 nM.
As to `O=C(CCCN1CCC2(CC1)C(=O)NCN2c1ccccc1)c1ccc(F)cc1` [[^3 H]-spiperone], the Specific binding result with CHO cells was “no detectable specific binding”.
With `C[N+](C)(C)CCOC(N)=O` [carbachol], the “[Ca+2]i” value in test [2] (carbachol 100 μM) is “unaltered”.
